One sequence from patent publication US20070054848A1, “Composition and method for nerve regeneration” (priority 2003, published 2007) can be followed below.

One experiment relates to DRG neurons. Briefly: Neurite outgrowth assay, DRG neurons. Format: cell-based, mice.
A further experiment deals with T1, p75 (Homo sapiens, UniProt P08138).
T1 construct: host or cells: 293T cells (p75)
T1 sequence (P08138 29-427): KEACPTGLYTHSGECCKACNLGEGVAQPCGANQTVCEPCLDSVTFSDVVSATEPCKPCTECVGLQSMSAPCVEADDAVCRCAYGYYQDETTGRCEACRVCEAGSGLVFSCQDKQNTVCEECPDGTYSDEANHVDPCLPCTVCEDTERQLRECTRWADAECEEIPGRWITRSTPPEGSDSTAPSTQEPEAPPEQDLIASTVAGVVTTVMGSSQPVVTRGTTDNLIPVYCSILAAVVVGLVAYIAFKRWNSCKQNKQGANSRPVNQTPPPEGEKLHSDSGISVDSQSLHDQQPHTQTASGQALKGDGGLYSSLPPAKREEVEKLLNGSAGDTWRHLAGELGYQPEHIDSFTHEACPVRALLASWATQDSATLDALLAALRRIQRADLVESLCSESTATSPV
Briefly: Co-precipitation of p75 and Rho GDI with purified recombinant proteins. Format: binding. Conditions: 1 μM GST-Rho GDI and Pep5 at the indicated concentrations.

The next experiment deals with hippocampal neurons. Format: cell-based. Conditions: data not shown.
The test system of experiment [1] is superior cervical ganglion neurons. Format: cell-based. The conditions noted are these: 100 ng/ml BDNF; data not shown.

Entries after “also recorded” stand apart in the source; their conditions may differ.

Consider CFFRGGFFNHNPRYC [Pep5], for which the “neurite outgrowth of neurons which express the short isoform but not the full-length p75” value in the experiment on DRG neurons is “did not affect the neurite outgrowth”. Also, the “association of p75 with Rho GDI” value at p75 is “inhibited the association of p75 with Rho GDI dose dependently; also recorded: inhibits the binding of p75 with Rho GDI dose dependently”. In addition, the “NGF-induced promotion of the neurite outgrowth” value in the experiment with hippocampal neurons is “did not inhibit”. The “cell death of superior cervical ganglion neurons” value in experiment [1] is on record as “did not inhibit”.
